According to US20100035822A1, “PROLINE-RICH PEPTIDES, PHARMACEUTICAL COMPOSITION, USE OF ONE OR MORE PEPTIDES AND METHOD OF TREATMENT” (priority 2006, published 2010):
Entries after “also recorded” stand apart in the source; their conditions may differ.

Key:
[1] = test system: renal nitric oxide synthase (NOS); experiment: Activation of kidney NOS in mice (3H-arginine to 3H-citrulline conversion); assay type: in vivo, mouse
Description: Male Swiss albinos weighing 22-25 g were injected intraperitoneally with: (1) 50 μl 0.9% NaCl (basal level control), or with 0.9% NaCl supplemented with LPS (2 mg/Kg) (positive control); (2) SEQ ID NO 8 (0.21, 0.91, and 3.47 mg/Kg); (3) SEQ ID NO 8 (0.91 mg/Kg) injected into animals pre-treated via intraperitoneally with L-NAME (3 mg/Kg for 1 h); (4) SEQ ID NO 8 (0.91 mg/Kg) injected into animals pre-treated via intraperitoneally with HOE140 (10 μg/Kg for 1 h); (5) captopril (0.21, 0.91, and 3.47 mg/Kg). After 5, 15, 30, 60, 120, and 180 min, animals were killed, their kidneys removed and stored at −70° C. Animals of group 3 and 4 were killed 30 minutes after administration of the oligopeptide.
NOS activity was measured according to Bredt and Snyder [Bredt D S and Snyder S H. Isolation of nitric oxide synthetase, a calmodulin-requiring enzyme. Proc. Natl. Acad. Sci. USA, 87, 682-685, 1990], and is based on estimating the enzymatic activity of the conversion of L-arginine into L-citrulline using ^3H-arginine as a reference for the conversion.
The kidneys were minced in homogenizing buffer, pH 7.4 (20 mM HEPES, 0.32 M saccharose, 1 mM DTT, 0.1 mM EDTA, 1 mM PMSF), and sonicated. Protein dosage was performed according to Bradford (1976), followed by a chromatography step in a 300 μL Dowex 50WX8-400 column.
For the enzymatic assay, 80 μg total protein from each sample were incubated for 60 minutes at 37° C. in 200 μL buffer (30 mM HEPES, 1 mM EDTA, 1.25 mM CaCl2, 1 mM NADPH, 10 μg/mL calmodulin, 4 μM FAD, 4 μM FMN, 25 μM BH4, 120 nM arginine, 0.5 μCi ^3H-arginine). The reaction was stopped by the addition of 1 ml 20 mM HEPES, and incubation in ice bath. ^3H-citrulline was separated from ^3H-arginine by ion-exchange chromatography in a 300 μL Dowex 50WX8-400 column. Radioactivity of the eluates was measured in a beta-counter. After converting cpm (counts per minute) into dpm (disintegration per minute), the specific activity of the nitric oxide synthase (NOS) was calculated using the following equation: […]

[2] = test system: spontaneously hypertensive rats (SHR); experiment: Anti-hypertensive action on SHR anaesthetized with pentobarbitone; assay type: in vivo, rat
Description: Adult male SHR, weighing between 250 and 350 g, were used. Material and methods described in Example 12 were employed, except for those described below.
1) Five SHR per group were anaesthetized intraperitoneally with 60 mg/Kg body weight with sodium pentobarbitone. Mean arterial blood pressure and heart rate were continuously calculated from arterial blood pressure pulses (PAP). Cardiovascular parameters were monitored during 30 minutes before i.v. administration of peptides SEQ ID NO 1, or SEQ ID NO 4, or SEQ ID NO 8 (71 nmoles/Kg body weight), or captopril (10 μmoles/Kg body weight), in a final volume of 0.5 mL 0.9% NaCl solution. The control was the vehicle (0.9% NaCl). PAM and heart rate were continuously monitored up to 180 minutes after administration of the anti-hypertensive compound.
2) The day before measurements, the SHR underwent surgery for catheter implantation into the femoral artery and vein. […] Cardiovascular parameters of the rats were monitored for 60 minutes before i.v. administration of peptides SEQ ID NO 1, or SEQ ID NO 4, or SEQ ID NO 8 (71 nmoles/Kg body weight), or captopril (10 μmoles/Kg body weight), in a final volume of 0.5 mL 0.9% NaCl solution. […] MAP and heart rate were continuously monitored up to 360 minutes after administration of the peptides.
Results, presented in FIG. 14B, are expressed as mean±SEM. […]

[3] = test system: SK-N-AS cells (human neuroblastoma); experiment: Free intracellular Ca2+ concentration in SK-N-AS cells (fluo-3 AM, confocal microscopy); assay type: cell-based; details: 1 μM
Description: In these experiments the variation in free intracellular calcium [Ca^2+]i concentration was measured in SK-N-AS cells (human neuroblastoma, ATCC No. CRL-2137) after addition of 1 μmolar of peptides SEQ ID NO 1 or SEQ ID NO 8, or of 1 μmolar captopril. Cells were kept in DMEM (Dulbecco Modified Medium), supplemented with 10% fetal bovine serum (FBS) and 1% non-essential amino acids, at 5% CO2 atmosphere, at 37° C., and 95% relative humidity. Cells were treated with trypsin, and replicated at adequate cell concentrations.
Measurements of variation in the concentration of free [Ca^2+]i were performed with a confocal microscope LSM 510 (Zeiss, Jena, Germany), as described by Martins et al., (Martins et al., Neuronal differentiation of P19 embryonal carcinoma cells modulates kinin B2 receptor gene expression and function. J. Biol. Chem. 280: 19576-19586, 2005). Approximately 5×10^4 SK-N-AS cells were plated on 60 mm plates 24 hours prior to measurement, and then treated with 4 μM fluo-3 AM (Invitrogen Corporation) in 0.5% DMSO and 0.1% non-ionic surfactant pluronic acid F-127 for 30 minutes at 37° C. Cells were washed with DMEM containing 10% FBS, and transferred to defined medium (5 μg/ml insulin, 30 μg/ml transferrin, 20 μM ethanolamine, 30 nM sodium selenite, 1 μM sodium pyruvate, 1% non-essential amino acids, 1 mM glutamine, 100 μg/ml penicillin, 100 μg/ml streptomycin, 10 mM HEPES pH 7.4 in DMEM). The fluorescent fluo-3 AM was excited at 488 nm, and the fluorescence measured at 526 nm.
Variations in the [Ca^2+]i were measured in non-stimulated cells, and in cells stimulated with peptides SEQ ID NO 1 or SEQ ID NO 8, or with captopril (Sigma Aldrich). Increase of fluorescence was monitored for 2 minutes, and images were acquired in 256×256 pixels every second. At the end of each experiment, 5 μM ionophore (4-Br-A23187) were added, followed by 10 mM EGTA, or 20 μM digitonin to determine maximum and minimum fluorescence, Fmax and Fmin respectively, as described by Grynkiewicz et al., (1985).
Intracellular calcium concentrations [Ca^2+]i, related to fluorescence (F) values obtained after addition of peptides SEQ ID NO 1 or SEQ ID NO 8, were calculated with the equation: [Ca^2+]=Kd(F−Fmin)/(Fmax−F), assuming Kd=450 nM for fluo-3 AM (Hallett et al., 1990).

Compound	renal NOS activity after injection ([1]; 0.2-3.5 mg/Kg of body weight)	effect of pentobarbitone on the anti-hypertensive action [2]	change of intracellular [Ca2+]i [3]	activation of mouse renal NOS activity ([1]; approximately 1 mg/Kg body weight)
CC(CS)C(=O)N1CCC[C@@H]1C(=O)O (stereo partly drawn) [captopril, D-3-mercapto-2-methyl-1-oxopropyl-L-proline, reference compound]	No significant renal NOS activity	not blocked by pentobarbitone	no change; also recorded: did not cause any change	–
<ENWPHPQIPP [SEQ ID NO 8]	–	susceptible to the action of pentobarbitone	Increase	approximately 60%
